Results reported in article PMC3834762 (British Journal of Pharmacology, 2013).
Residue numbers refer to the chain shown, from its start.

Tests used:
Format in all cases: cell-based
5‐HT3A receptors = target: T1, 5‐HT3A receptors (Homo sapiens, UniProt P46098); assay: two‐electrode voltage clamp, wild type 5‐HT3A receptors in Xenopus oocytes
T1 sequence (P46098 24-478): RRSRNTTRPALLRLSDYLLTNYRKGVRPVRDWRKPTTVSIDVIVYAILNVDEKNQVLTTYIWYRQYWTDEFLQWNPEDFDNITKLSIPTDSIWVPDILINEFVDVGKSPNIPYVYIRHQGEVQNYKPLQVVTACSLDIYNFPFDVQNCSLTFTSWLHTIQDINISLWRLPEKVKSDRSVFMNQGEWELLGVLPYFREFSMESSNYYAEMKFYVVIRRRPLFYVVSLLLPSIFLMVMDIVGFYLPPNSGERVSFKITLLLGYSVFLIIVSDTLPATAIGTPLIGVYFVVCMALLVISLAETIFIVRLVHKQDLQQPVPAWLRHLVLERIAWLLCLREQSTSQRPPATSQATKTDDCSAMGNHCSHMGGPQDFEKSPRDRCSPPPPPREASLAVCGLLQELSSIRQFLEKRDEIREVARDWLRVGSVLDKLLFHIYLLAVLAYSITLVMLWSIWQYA

5‐HT3AB receptors = target: T2, 5‐HT3AB receptors (Homo sapiens, UniProt O95264+P46098); assay: two‐electrode voltage clamp, wild type 5‐HT3AB receptors in Xenopus oocytes
T2 sequence (P46098 24-478): T1 sequence (P46098 24-478)
T2 sequence (O95264 22-441): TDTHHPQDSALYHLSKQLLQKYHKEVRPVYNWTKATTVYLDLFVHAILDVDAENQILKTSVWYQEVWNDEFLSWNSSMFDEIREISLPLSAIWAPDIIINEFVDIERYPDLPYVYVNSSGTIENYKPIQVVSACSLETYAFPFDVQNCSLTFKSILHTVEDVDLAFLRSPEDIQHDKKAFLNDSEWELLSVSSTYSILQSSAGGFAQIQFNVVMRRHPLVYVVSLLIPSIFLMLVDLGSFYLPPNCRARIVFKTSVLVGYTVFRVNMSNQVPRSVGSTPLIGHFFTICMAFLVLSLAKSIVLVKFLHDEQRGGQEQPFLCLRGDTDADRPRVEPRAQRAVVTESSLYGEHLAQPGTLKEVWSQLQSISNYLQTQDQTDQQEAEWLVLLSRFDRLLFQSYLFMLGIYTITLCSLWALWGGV

5‐HT3AT6'SB receptors = target: T3, 5‐HT3AT6'SB receptors (Homo sapiens, UniProt O95264+P46098, T279S); assay: two‐electrode voltage clamp, 5‐HT3AT6'SB mutant receptors in Xenopus oocytes; conditions: maximal current amplitude for the test ligand compared to 5‐HT
T3 sequence (P46098 24-478 T279S): T1 sequence (P46098 24-478) with T256S
T3 sequence (O95264 22-441): T2 sequence (O95264 22-441)

5‐HT3AT6'S receptors = target: T4, 5‐HT3AT6'S receptors (Homo sapiens, UniProt P46098, T279S); assay: two‐electrode voltage clamp, 5‐HT3AT6'S mutant receptors in Xenopus oocytes; conditions: maximal current amplitude for the test ligand compared to 5‐HT
T4 sequence (P46098 24-478 T279S): T1 sequence (P46098 24-478) with T256S

long‐lived inhibition of subsequent agonist responses (5‐HT3A receptors; wild type 5‐HT3A and 5‐HT3AB receptors): > 20 min
Rmax (5‐HT3AT6'SB receptors): 1.2
Rmax (5‐HT3AT6'S receptors): 0.9
Compound: c1ccc2nc(N3CCNCC3)ccc2c1 [Quipazine]
agonist response (5‐HT3A receptors; 5‐HT3A): too small to accurately determine functional parameters
agonist response (5‐HT3AB receptors): too small to accurately determine functional parameters
